# How the values were obtained:
# [1] = tested on: interstitial cystitis; details: cited from earlier work
# [2] = tested on: rat model of Interstitial Cystitis; experiment: Efficacy of sNOCC in reducing inflammation in a rat model of interstitial cystitis (Example 2), bladder histology inflammatory score; assay type: in vivo
# Method: Animals: Female Sprague-Dawley rats (225-250 g) were purchased from Charles River Laboratories. Animals were provided with food and water ad libitum. Intra-vesicular inoculation of protamine sulfate (PS) and LPS: Rats were anesthetized with sodium pentobarbital (65 mg/kg). The surface area around the urethral opening was swabbed with 70% isopropyl alcohol and Betadine. A lubricated sterile catheter (PE-50), handled with sterile gloves, was inserted into the bladder through the urethral opening. The catheter was connected to a 1 ml syringe via a 25 G needle and the bladder was emptied as described above. One group of rats was inoculated with 1 ml PS (10 mg/ml) in phosphate buffered saline (PBS) into the bladder via the catheter. After 45 minutes, the bladders were emptied, washed with PBS, then given a second treatment with 1 ml LPS (750 μg/ml) in PBS for 30 minutes. […]
# The parameters of inflammation measured were: increased venous blood vessel size and volume (venous congestion), edema, cellular infiltration, and epithelial damage. […] The parameters were measured by a blinded observer using a five point score with 0 being the least severe and 5 being the most severe. A total inflammatory score was calculated for each rat by adding together the scores of the four inflammatory parameters. A mean total inflammatory score was calculated for each group. […]
compound,measurement,setting,value
"C[S+](C)[O-] [DMSO, dimethylsulfoxide]",average length of response,[1]; instillation into the bladder for six to eight weeks,six
same,response rate,"[1]; instillation into the bladder for six to eight weeks, placebo 18%",53%
oxychlorosene sodium,results relative to instillation of DMSO,[1]; Messing et al. 1978,Equivalent results
"Nc1ccc(O)c(C(=O)O)c1 [saline + 5ASA, 5-aminosalicylic acid]",Mean Inflammatory Score (±SEM),"[2]; agent 1 ml intravesical 1 day after PS/LPS, sacrifice day 5 post inoculation, total of four parameters each scored 0-5, saline control 12.7 (±1.5)",7.9 (±1.8)
same,% reduction of inflammation from saline treated control,"[2]; from mean inflammatory score, day 5 post inoculation",37.5%
